Source: patent publication US20120020940A1, “ANTIMICROBIAL PEPTIDES” (Helmholtz Zentrum München Deutsches Forschungszentrum Für …, priority 2008, published 2012)
No end group written: not given here.

Legend:
Alternaria alternata = assay: MIC, antifungal in-vitro inhibition assay (Example 2); format: cell-based; settings: Table 1
Procedure: (§1) In-vitro inhibition assays were performed in sterile flat-bottom 96-well plates (Greiner bio-one, Frickenhausen). Antimicrobial peptides were dissolved in 0.01% acetic acid containing 0.2% BSA (500 μg/ml), filter sterilized and stored at −20° C. For inhibition assays dilutions of peptides ranging from 5 to 200 μg/ml were prepared and 10 μl (antibacterial assay) or 20 μl (antifungal assay) of each concentration was loaded per well.
(§2) Spores of fungi were collected by water washes of sporulating cultures grown on 2% malt extract agar and spore concentration was determined by microscopy. The concentration of the spores was adjusted to 1.5-2×10^3 spores/ml in 2% malt extract medium and 80 μl of fungal spores were added per well. The final peptide concentrations used in the fungal inhibition assays were […]. After overnight incubation at room temperature the plate were put on a rotary shaker (300 rpm) for further two days to ensure consistantly growth. Antifungal effects of the peptides were determined by a microplate reader (Alternaria, Fusarium) at OD590 nm or by visual screening of the plates (Botrytis, Cladosporium).
(§3) The lowest peptide concentration leading to complete inhibition of bacterial growth or spore germination/mycelial growth (minimal inhibition concentration, MIC) was determined for each organism-peptide combination. For each peptide concentration two identical inhibition assays were performed.

Botrytis cinerea = assay: as above; format: cell-based; settings: Table 1
Procedure: as §1, §2, §3

Cladosporium herbarum = assay: as above; format: cell-based; settings: Table 1
Procedure: as §1, §2, §3

[1] = test system: Clavibacter michiganensis; assay: MIC and lethal concentration (Example 3); format: cell-based; settings: Table 2; for MIC (>90% inhibition): 1-2 days at 25° C.; for LC, lethal concentration (100% inhibition): at least 4 days of incubation
Procedure: as §1
(§4) Bacteria colonies from overnight agar plate cultures were resuspended into 5 ml LB-medium or HPG-medium (OD600 nm=0.08-0.1) and diluted into LB-medium/HPG-medium (1:100). 90 μl of this suspension containing about 10^5-10^6 CFU/ml of tested bacteria were added to each well resulting in final peptide concentrations of 0, 0.5, 1, 2, 5, 10, and 20 μg/ml. […] The lowest concentration, in which there is no observable growth (>90% inhibition) is referred to as minimal inhibitory concentration (MIC). […] For each peptide concentration two identical inhibition assays were performed.

[2] = test system: Pectobacterium carotovorum; assay: MIC and lethal concentration (Example 3); format: cell-based; settings: Table 2; for MIC (>90% inhibition): 1-2 days at 25° C.; for LC, lethal concentration (100% inhibition): at least 4 days of incubation
Procedure: as §1, §4

Pseudomonas corrugata [3] = assay: MIC and lethal concentration (Example 3); format: cell-based; settings: Table 2; for MIC (>90% inhibition): 1-2 days at 25° C.; for LC, lethal concentration (100% inhibition): at least 4 days of incubation
Procedure: as §1, §4

[4] = test system: Pseudomonas syringae pv. syringae; assay: MIC and lethal concentration (Example 3); format: cell-based; settings: Table 2; for MIC (>90% inhibition): 1-2 days at 25° C.; for LC, lethal concentration (100% inhibition): at least 4 days of incubation
Procedure: as §1, §4

[5] = test system: Pseudomonas syringae pv. tomato; assay: MIC and lethal concentration (Example 3); format: cell-based; settings: Table 2; for MIC (>90% inhibition): 1-2 days at 25° C.; for LC, lethal concentration (100% inhibition): at least 4 days of incubation
Procedure: as §1, §4

Xanthomonas vesicatoria [6] = assay: MIC and lethal concentration (Example 3); format: cell-based; settings: Table 2; for MIC (>90% inhibition): 1-2 days at 25° C.; for LC, lethal concentration (100% inhibition): at least 4 days of incubation
Procedure: as §1, §4

human erythrocytes = assay: Hemolytic activity, hemoglobin release; format: cell-based; settings: 45 min at 37° C., Table 3
Procedure: The hemolytic activity of the peptides was evaluated by determining hemoglobin release of suspensions of fresh human erythrocytes at 405 nm. Human red blood cells were centrifuged and washed three times with Tris-buffer (10 mM Tris, 150 mM NaCl, pH 7.4). Eighty μl of human red blood cells (1.5×10^9/ml) were added to 20 μl of the peptides solution (peptides dissolved in 0.2% BSA, 0.01% HAc) in 96-well plates (Greiner bio-one, Frickenhausen) and incubated for 45 min at 37° C. The endconcentration of the peptides were 0, 20, 50, 100 and 200 μg/ml. After centrifugation (1500×g, 5 min, 20° C.) 30 μl aliquots of the supernatant were transferred to 96-well plates containing 100 μl water. Hemolysis was measured by absorbance at 405 nm with a microplate reader. 100% hemolysis were determined in 2% SDS. The hemolysis percentage was calculated using the following equation: % hemolysis=[(Abs405 nm in the peptide solution−Abs405 nm in peptides solvent)/(Abs405 nm in 2% SDS−Abs405 nm in peptide solvent)]×100.
Further hemolytic activities of the various peptides of the present invention may be taken from the table depicted in example 3, last row indicated as “Hemolytic activity”. In connection therewith, however, the concentrations are stated where at least 50% hemolysis was observed.

[7] = test system: Clavibacter michiganensis sub. michiganensis; settings: overnight 25° C., Table 1
[8] = test system: Pectobacterium carotovorum sub. carotovorum; settings: Pectobacterium carotovorum sub. carotovorum; overnight 25° C.; Table 1
Xanthomonas vesicatoria [9] = settings: Xanthomonas vesicatoria; overnight 25° C.; Table 1
[10] = test system: Pseudomonas syringae pv. tomato; settings: Pseudomonas syringae pv. tomato; overnight 25° C.; Table 1
[11] = test system: Pseudomonas syringae pv. syringae; settings: Pseudomonas syringae pv. syringae; overnight 25° C.; Table 1
Pseudomonas corrugata [12] = settings: Pseudomonas corrugata; overnight 25° C.; Table 1

Row | Substance | MIC (>90% inhibition) [1] | LC, lethal concentration (100% inhibition) [1] | MIC (>90% inhibition) [2] | LC, lethal concentration (100% inhibition) [2] | MIC (>90% inhibition) (Pseudomonas corrugata [3]) | LC, lethal concentration (100% inhibition) (Pseudomonas corrugata [3]) | MIC (>90% inhibition) [4] | LC, lethal concentration (100% inhibition) [4] | MIC (>90% inhibition) [5] | LC, lethal concentration (100% inhibition) [5] | MIC (>90% inhibition) (Xanthomonas vesicatoria [6]) | LC, lethal concentration (100% inhibition) (Xanthomonas vesicatoria [6]) | other results
1 | LRALAKALKHKL-NH2 [SP11, LRALAKALKHKL -NH2] | – | – | – | – | – | – | – | – | – | – | – | – | Minimal inhibition concentration (MIC) for complete inhibition of spore germination/mycelial growth (Alternaria alternata): >100 µg/mL; Minimal inhibition concentration (MIC) for complete inhibition of spore germination/mycelial growth (Botrytis cinerea): >100 µg/mL; Minimal inhibition concentration (MIC) for complete inhibition of spore germination/mycelial growth (Cladosporium herbarum): 20 µg/mL
2 | LRFLRRILRRLL-NH2 [SP10-8] | 0.5/0.5 μg/ml | 0.5/0.5 μg/ml | 2.5 µg/mL | 5.0 µg/mL | 0.5 µg/mL | 1.0 µg/mL | 0.5/0.5 μg/ml | 0.5/0.5 μg/ml | 1.0/1.0 μg/ml | 1.0/1.0 μg/ml | 0.5/0.5 μg/ml | 0.5/0.5 μg/ml | –
3 | LRFAKKALKKLF-NH2 [SP10-3] | 2.5/2.5 μg/ml | 2.5/2.5 μg/ml | >10/>10 μg/ml | >10/>10 μg/ml | 1.0 µg/mL | – | 0.25 µg/mL | 2.5 µg/mL | 0.25/0.25 μg/ml | 0.25/0.25 μg/ml | 2.5/2.5 μg/ml | 2.5/2.5 μg/ml | –
4 | LRFIKKILKKLI-NH2 [SP10-4] | 0.25/0.25 μg/ml | 0.25/0.25 μg/ml | 2.5/2.5 μg/ml | 2.5/2.5 μg/ml | 2.5/2.5 μg/ml | 2.5/2.5 μg/ml | 0.25 µg/mL | 0.5 µg/mL | 1.0/1.0 μg/ml | 1.0/1.0 μg/ml | 0.1 µg/mL | 0.25 µg/mL | –
5 | LRFARRALRRLF-NH2 [SP10-9] | 1.0/1.0 μg/ml | 1.0/1.0 μg/ml | 2.5 µg/mL | 5.0 µg/mL | 0.5 µg/mL | 2.5 µg/mL | 0.25 µg/mL | 2.5 µg/mL | 0.25 µg/mL | 0.5 µg/mL | 1.0 µg/mL | 2.5 µg/mL | –
6 | LRIIKKILKKLI-NH2 [SP10-5] | 0.5/0.5 μg/ml | 0.5/0.5 μg/ml | 2.5 µg/mL | 10 µg/mL | 0.5 µg/mL | 2.5 µg/mL | 0.5/0.5 μg/ml | 0.5/0.5 μg/ml | 0.25 µg/mL | 0.5 µg/mL | 0.25 µg/mL | 0.5 µg/mL | –
7 | LLKALKKLLKKLL-NH2 [SP9] | – | – | – | – | – | – | – | – | – | – | – | – | Minimal inhibition concentration (MIC) for complete inhibition of spore germination/mycelial growth (Alternaria alternata): >100 µg/mL; Minimal inhibition concentration (MIC) for complete inhibition of spore germination/mycelial growth (Botrytis cinerea): >100 µg/mL; Minimal inhibition concentration (MIC) for complete inhibition of spore germination/mycelial growth (Cladosporium herbarum): 40 µg/mL; Hemolytic activity, concentration where at least 25% hemolysis was observed (human erythrocytes): 50 µg/mL; Minimal inhibition concentration (MIC) for complete inhibition of bacterial growth [7]: 10 µg/mL; Minimal inhibition concentration (MIC) for complete inhibition of bacterial growth [8]: >40 µg/mL; Minimal inhibition concentration (MIC) for complete inhibition of bacterial growth (Xanthomonas vesicatoria [9]): 5 µg/mL; Minimal inhibition concentration (MIC) for complete inhibition of bacterial growth [10]: 10 µg/mL; Minimal inhibition concentration (MIC) for complete inhibition of bacterial growth [11]: 10 µg/mL; Minimal inhibition concentration (MIC) for complete inhibition of bacterial growth (Pseudomonas corrugata [12]): >40 µg/mL
8 | LRIIRRILRRLI-NH2 [SP10-6] | 2.5/2.5 μg/ml | 2.5/2.5 μg/ml | 2.5 µg/mL | 5.0 µg/mL | 2.5/2.5 μg/ml | 2.5/2.5 μg/ml | 2.5/2.5 μg/ml | 2.5/2.5 μg/ml | 1.0/1.0 μg/ml | 1.0/1.0 μg/ml | 1.0/1.0 μg/ml | 1.0/1.0 μg/ml | –
9 | LRFLKKILKKLF-NH2 [SP10-1] | 1.0 µg/mL | 2.5 µg/mL | 2.5 µg/mL | 5.0 µg/mL | 2.5/2.5 μg/ml | 2.5/2.5 μg/ml | 2.5/2.5 μg/ml | 2.5/2.5 μg/ml | 1.0/1.0 μg/ml | 1.0/1.0 μg/ml | 2.5/2.5 μg/ml | 2.5/2.5 μg/ml | –
10 | LKALRKALKHLA-NH2 [SP12, LKALRKALKHLA -NH2] | – | – | – | – | – | – | – | – | – | – | – | – | Minimal inhibition concentration (MIC) for complete inhibition of spore germination/mycelial growth (Alternaria alternata): >100 µg/mL; Minimal inhibition concentration (MIC) for complete inhibition of spore germination/mycelial growth (Botrytis cinerea): >100 µg/mL; Minimal inhibition concentration (MIC) for complete inhibition of spore germination/mycelial growth (Cladosporium herbarum): 20 µg/mL; Hemolytic activity, concentration where at least 25% hemolysis was observed (human erythrocytes): >200 µg/mL; Minimal inhibition concentration (MIC) for complete inhibition of bacterial growth [7]: >40 µg/mL; Minimal inhibition concentration (MIC) for complete inhibition of bacterial growth [8]: >40 µg/mL; Minimal inhibition concentration (MIC) for complete inhibition of bacterial growth (Xanthomonas vesicatoria [9]): 20 µg/mL; Minimal inhibition concentration (MIC) for complete inhibition of bacterial growth [10]: 2.5 µg/mL; Minimal inhibition concentration (MIC) for complete inhibition of bacterial growth [11]: 10 µg/mL; Minimal inhibition concentration (MIC) for complete inhibition of bacterial growth (Pseudomonas corrugata [12]): >40 µg/mL
11 | LRILRRLLRRLF-NH2 [SP10-7] | 5.0/5.0 μg/ml | 5.0/5.0 μg/ml | >10/>10 μg/ml | >10/>10 μg/ml | 2.5/2.5 μg/ml | 2.5/2.5 μg/ml | >10/>10 μg/ml | >10/>10 μg/ml | 0.5 µg/mL | 1.0 µg/mL | 5.0s/5.0^ μg/ml | 5.0s/5.0^ μg/ml | –
